Our source for the Activity values is ChEMBL document CHEMBL1140062, “Inactivation of NF-kappaB components by covalent binding of (-)-dehydroxymethylepoxyquinomicin to specific cysteine residues” (J Med Chem, 2008).

Data set [1] deals with Transcription factor p65 (Homo sapiens) (UniProt Q04206). The data set is described as follows: Inhibition of DNA binding activity of full-length recombinant NF-kappaB p65 Rel subunit at 10 uM by EMSA.
In data set [2] the test system is Transcription factor p65 (Homo sapiens), Q04206 [C120S]. The data set is described as follows: Inhibition of DNA binding activity of NF-kappaB p65 (1-325) C120S mutant by EMSA. (In EMSA bound probe runs differently from free probe, usually more slowly.)
Chain of Transcription factor p65 (Homo sapiens), Q04206 [C120S] (Q04206 whole entry C120S): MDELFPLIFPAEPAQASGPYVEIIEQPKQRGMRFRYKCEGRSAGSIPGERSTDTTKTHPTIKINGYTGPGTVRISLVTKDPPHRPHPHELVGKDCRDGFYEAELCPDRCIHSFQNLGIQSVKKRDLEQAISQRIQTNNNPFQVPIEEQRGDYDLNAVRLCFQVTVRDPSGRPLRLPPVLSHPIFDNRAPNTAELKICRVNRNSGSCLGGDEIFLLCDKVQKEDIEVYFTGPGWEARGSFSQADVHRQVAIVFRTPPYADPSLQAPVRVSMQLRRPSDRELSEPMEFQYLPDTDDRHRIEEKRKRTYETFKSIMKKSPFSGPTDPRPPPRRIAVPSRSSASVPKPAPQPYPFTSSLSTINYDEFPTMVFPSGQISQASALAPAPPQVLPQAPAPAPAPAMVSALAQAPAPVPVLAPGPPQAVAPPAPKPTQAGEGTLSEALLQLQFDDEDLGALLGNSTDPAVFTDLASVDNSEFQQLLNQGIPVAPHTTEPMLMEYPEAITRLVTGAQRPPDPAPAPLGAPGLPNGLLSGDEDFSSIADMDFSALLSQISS
Data set [3] concerns T1, Proto-oncogene c-Rel (Homo sapiens), Q04864 [C27S].
T1 sequence (whole entry): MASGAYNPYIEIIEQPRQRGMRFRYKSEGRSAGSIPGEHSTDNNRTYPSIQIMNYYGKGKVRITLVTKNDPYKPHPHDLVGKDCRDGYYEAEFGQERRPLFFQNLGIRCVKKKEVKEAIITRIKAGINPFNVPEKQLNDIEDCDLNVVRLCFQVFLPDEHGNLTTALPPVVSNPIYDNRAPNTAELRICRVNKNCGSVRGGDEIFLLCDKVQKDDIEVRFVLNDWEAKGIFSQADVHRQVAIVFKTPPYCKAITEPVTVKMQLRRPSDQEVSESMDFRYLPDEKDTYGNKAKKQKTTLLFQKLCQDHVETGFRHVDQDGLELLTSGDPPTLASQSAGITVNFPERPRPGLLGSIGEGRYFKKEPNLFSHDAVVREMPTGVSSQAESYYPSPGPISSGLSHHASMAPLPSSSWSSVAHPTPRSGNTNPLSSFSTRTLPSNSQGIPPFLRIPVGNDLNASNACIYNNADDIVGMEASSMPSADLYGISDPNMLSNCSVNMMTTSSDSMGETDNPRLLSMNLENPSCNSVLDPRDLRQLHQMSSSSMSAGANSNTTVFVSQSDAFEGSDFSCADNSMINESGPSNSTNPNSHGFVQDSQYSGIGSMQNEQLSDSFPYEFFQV
The data set is described as follows: Inhibition of DNA binding activity of NF-kappaB cRel (1-307) C27S mutant.

Data set [4] in a line: Inhibition of DNA binding activity of wild type NF-kappaB cRel (1-307).
Data set [5] deals with T2, Nuclear factor NF-kappa-B p100 subunit (Homo sapiens) (UniProt Q00653).
T2 sequence (whole entry): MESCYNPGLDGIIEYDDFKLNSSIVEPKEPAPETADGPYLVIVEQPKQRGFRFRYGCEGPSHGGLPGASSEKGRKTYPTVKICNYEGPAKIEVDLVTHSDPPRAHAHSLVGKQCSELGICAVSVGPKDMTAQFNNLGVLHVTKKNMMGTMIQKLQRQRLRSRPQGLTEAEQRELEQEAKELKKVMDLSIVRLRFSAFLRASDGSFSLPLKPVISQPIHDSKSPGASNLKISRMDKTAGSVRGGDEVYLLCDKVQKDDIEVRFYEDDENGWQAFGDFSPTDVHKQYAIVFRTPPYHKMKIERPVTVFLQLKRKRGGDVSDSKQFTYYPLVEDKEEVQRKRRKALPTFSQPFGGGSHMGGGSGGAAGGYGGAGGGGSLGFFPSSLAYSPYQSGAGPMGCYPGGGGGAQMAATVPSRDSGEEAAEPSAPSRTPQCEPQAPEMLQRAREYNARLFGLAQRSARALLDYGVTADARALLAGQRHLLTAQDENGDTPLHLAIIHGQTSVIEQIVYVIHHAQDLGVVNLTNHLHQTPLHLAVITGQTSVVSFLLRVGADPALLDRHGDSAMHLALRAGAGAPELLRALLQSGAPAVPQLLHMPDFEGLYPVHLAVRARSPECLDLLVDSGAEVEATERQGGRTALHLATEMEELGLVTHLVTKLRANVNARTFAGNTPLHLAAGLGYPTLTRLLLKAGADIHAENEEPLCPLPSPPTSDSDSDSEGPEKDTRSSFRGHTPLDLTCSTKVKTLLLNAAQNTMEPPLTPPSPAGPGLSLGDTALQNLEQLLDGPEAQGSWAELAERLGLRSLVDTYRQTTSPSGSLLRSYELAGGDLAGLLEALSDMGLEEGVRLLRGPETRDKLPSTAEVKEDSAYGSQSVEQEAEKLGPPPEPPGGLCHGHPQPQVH
The data set is described as follows: Inhibition of DNA binding activity of NF-kappaB p52.

Data set [6] in a line: Binding affinity to NF-kappaB p65 (1-325) Rel subunit at 100 uM by surface plasmon resonance analysis. (In SPR one partner is held on a chip, and binding of the other changes the refractive index at the surface.)
A short description of data set [7]: Inhibition of DNA binding activity of NF-kappaB p50 C144S mutant by MALDI-TOF MS analysis.
The target of data set [8] is T3, Nuclear factor NF-kappa-B p105 subunit (Homo sapiens) (UniProt P19838).
T3 sequence (whole entry): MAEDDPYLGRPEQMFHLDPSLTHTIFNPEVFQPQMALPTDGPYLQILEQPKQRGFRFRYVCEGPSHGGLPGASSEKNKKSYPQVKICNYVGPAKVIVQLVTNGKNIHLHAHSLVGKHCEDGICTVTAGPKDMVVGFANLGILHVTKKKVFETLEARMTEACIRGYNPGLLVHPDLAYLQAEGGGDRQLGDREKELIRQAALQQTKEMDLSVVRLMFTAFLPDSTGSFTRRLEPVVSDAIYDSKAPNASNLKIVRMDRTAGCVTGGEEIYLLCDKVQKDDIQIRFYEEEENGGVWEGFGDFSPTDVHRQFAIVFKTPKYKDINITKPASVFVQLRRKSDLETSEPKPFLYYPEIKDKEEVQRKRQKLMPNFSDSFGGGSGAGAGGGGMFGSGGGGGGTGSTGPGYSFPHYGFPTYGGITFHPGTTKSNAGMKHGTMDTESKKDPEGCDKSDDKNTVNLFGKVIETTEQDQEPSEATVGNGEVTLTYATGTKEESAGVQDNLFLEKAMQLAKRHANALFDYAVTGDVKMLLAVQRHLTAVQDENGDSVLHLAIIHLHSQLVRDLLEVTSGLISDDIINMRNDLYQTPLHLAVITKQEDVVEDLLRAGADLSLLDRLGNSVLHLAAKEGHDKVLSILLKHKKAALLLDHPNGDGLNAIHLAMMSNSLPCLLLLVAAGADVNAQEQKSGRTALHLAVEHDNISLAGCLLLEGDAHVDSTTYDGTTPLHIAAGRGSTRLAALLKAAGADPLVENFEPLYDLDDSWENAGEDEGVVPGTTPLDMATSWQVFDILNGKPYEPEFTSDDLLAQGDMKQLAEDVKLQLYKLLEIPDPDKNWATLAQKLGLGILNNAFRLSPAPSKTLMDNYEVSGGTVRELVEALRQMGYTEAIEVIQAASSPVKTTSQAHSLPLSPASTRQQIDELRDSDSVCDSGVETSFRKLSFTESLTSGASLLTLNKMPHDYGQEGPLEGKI
The data set is described as follows: Inhibition of DNA binding activity of wild type NF-kappaB p50.

For data set [9], the system named is HeLa. The data set is described as follows: Decrease of TNF-alpha-stimulated wild type NF-kappaB p65 level in human HeLa cell nucleus at 10 ug/mL by Western blot analysis. The class given is functional, cell-based. A general note: Immunoblotting shows a protein as a band on a membrane.
Data set [10] deals with Albumin (Bos taurus, UniProt P02769). The data set is described as follows: Binding affinity to bovine serum albumin. The class given is ADME. Particulars: cattle, isolated protein.
Chain of Albumin (P02769 whole entry): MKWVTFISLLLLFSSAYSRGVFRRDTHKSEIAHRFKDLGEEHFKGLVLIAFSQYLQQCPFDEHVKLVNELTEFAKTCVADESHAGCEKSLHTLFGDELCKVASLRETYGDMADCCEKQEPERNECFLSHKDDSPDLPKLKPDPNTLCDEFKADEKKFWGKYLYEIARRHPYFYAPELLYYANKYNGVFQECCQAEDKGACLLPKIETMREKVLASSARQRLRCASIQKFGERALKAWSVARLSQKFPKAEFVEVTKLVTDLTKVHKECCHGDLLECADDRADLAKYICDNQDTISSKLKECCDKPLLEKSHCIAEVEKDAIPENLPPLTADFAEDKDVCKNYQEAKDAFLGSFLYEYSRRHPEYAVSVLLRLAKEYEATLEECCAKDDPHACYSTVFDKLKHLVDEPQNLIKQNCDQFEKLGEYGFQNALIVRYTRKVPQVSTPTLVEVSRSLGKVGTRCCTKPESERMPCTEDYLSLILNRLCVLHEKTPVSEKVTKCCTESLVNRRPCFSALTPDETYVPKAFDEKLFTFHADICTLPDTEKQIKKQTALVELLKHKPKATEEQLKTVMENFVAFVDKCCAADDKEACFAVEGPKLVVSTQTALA
Data set [11] relates to T1, Proto-oncogene c-Rel (Homo sapiens), Q04864 [C27S]. The data set is described as follows: Inhibition of DNA binding activity of NF-kappaB cRel (1-307) C27S mutant by MALDI-TOF MS analysis.
Data set [12] concerns the target T3, Nuclear factor NF-kappa-B p105 subunit (Homo sapiens). The data set is described as follows: Inhibition of DNA binding activity of wild type NF-kappaB p50 by MALDI-TOF MS analysis.
In data set [13] the test system is HeLa. The data set is described as follows: Decrease of TNF-alpha-stimulated endogenous NF-kappaB p65 level in human HeLa cell nucleus at 10 ug/mL by Western blot analysis. The class given is functional, cell-based.
The test system of data set [14] is Transcription factor p65 (Homo sapiens), Q04206 [C38S]. The data set is described as follows: Inhibition of DNA binding activity of NF-kappaB p65 (1-325) C38S mutant by MALDI-TOF MS analysis.
Chain of Transcription factor p65 (Homo sapiens), Q04206 [C38S] (Q04206 whole entry C38S): as the sequence (Q04206 whole entry C120S) above, with C38S, S120C counted along it
Data set [15] in a line: Inhibition of DNA binding activity of NF-kappaB p50 C62S mutant by MALDI-TOF MS analysis.
Data set [16] has as its system Transcription factor p65 (Homo sapiens), Q04206 [C38S]. The data set is described as follows: Inhibition of TNF-alpha-stimulated DNA binding activity of NF-kappaB p65 C38S mutant expressed in HeLa cells at 10 ug/mL hrs by EMSA. The class given is cell-based.
The subject of data set [17] is Transcription factor p65 (Homo sapiens), Q04206 [C120S]. The data set is described as follows: Inhibition of DNA binding activity of NF-kappaB p65 (1-325) C120S mutant by MALDI-TOF MS analysis.
The test system of data set [18] is Transcription factor p65 (Homo sapiens), Q04206 [C38S]. The data set is described as follows: Inhibition of DNA binding activity of full-length recombinant NF-kappaB p65 Rel subunit C38S mutant at 10 uM by EMSA.
Data set [19] is described as follows: Inhibition of DNA binding activity of NF-kappaB p50 C62S mutant.
Data set [20] can be described thus: Inhibition of DNA binding activity of wild type NF-kappaB cRel (1-307) by MALDI-TOF MS analysis.
The target of data set [21] is Transcription factor p65 (Homo sapiens) (UniProt Q04206). The data set is described as follows: Inhibition of TNF-alpha-stimulated DNA binding activity of wild type NF-kappaB p65 expressed in HeLa cells at 10 ug/mL by EMSA. The class given is cell-based.
Data set [22] concerns HeLa. The data set is described as follows: Decrease of TNF-alpha-stimulated NF-kappaB p65 C38S mutant level in human HeLa cell nucleus at 10 ug/mL by Western blot analysis. The class given is functional, cell-based.
The nature of data set [23]: Inhibition of DNA binding activity of NF-kappaB p65 (1-325) Rel subunit at 20 uM by EMSA.
Data set [24] deals with Transcription factor p65 (Homo sapiens), Q04206 [C38S]. The data set is described as follows: Inhibition of DNA binding activity of NF-kappaB p65 (1-325) C38S mutant by EMSA.

Calls of active or inactive are those of the source. The rule behind the calls is not given here.

Chain of Transcription factor p65 (Homo sapiens) (Q04206 whole entry): as the sequence (Q04206 whole entry C120S) above, with S120C counted along it

Regarding `O=C(NC1=CC(=O)[C@H]2O[C@H]2[C@H]1O)c1ccccc1O` [DEHYDROXYMETHYLEPOXYQUINOMICIN], the result in data set [1], in data set [3], in data set [5], in [7], in data set [11] and in data set [14] was inactive. For the same compound, the result in [15], in [16], in [18], in data set [19], in data set [22] and in data set [24] was inactive. Besides, the outcome in [2], in [4], in data set [6], in [8], in data set [9] and in [12] was Active. Moreover, the result in data set [13], in data set [17], in data set [20], in data set [21] and in [23] was Active. Further, the Activity entry in data set [10] is “Not Active”.
